Source: patent US20250289897A1, “LEPTIN RECEPTOR AGONISTIC ANTIBODY AS MONO OR COMBO THERAPIES TO TREAT OBESITY” (ELI LILLY AND COMPANY, priority 2024, published 2025)

How the values were obtained:
human LEPR = target: T1, human LEPR (Homo sapiens, UniProt P48357); experiment: STAT3-luciferase reporter assay in HEK293-STAT3Luc-hLepR1 cells; format: cell-based
T1 construct: introducing DNA plasmids encoding full-length LEPR of different species and STAT3-luciferase reporter gene into HEK293 cells; expressed in transfected cells; host or cells: HEK293 (HEK293-STAT3Luc-hLepR1)
T1 sequence (P48357 22-1165): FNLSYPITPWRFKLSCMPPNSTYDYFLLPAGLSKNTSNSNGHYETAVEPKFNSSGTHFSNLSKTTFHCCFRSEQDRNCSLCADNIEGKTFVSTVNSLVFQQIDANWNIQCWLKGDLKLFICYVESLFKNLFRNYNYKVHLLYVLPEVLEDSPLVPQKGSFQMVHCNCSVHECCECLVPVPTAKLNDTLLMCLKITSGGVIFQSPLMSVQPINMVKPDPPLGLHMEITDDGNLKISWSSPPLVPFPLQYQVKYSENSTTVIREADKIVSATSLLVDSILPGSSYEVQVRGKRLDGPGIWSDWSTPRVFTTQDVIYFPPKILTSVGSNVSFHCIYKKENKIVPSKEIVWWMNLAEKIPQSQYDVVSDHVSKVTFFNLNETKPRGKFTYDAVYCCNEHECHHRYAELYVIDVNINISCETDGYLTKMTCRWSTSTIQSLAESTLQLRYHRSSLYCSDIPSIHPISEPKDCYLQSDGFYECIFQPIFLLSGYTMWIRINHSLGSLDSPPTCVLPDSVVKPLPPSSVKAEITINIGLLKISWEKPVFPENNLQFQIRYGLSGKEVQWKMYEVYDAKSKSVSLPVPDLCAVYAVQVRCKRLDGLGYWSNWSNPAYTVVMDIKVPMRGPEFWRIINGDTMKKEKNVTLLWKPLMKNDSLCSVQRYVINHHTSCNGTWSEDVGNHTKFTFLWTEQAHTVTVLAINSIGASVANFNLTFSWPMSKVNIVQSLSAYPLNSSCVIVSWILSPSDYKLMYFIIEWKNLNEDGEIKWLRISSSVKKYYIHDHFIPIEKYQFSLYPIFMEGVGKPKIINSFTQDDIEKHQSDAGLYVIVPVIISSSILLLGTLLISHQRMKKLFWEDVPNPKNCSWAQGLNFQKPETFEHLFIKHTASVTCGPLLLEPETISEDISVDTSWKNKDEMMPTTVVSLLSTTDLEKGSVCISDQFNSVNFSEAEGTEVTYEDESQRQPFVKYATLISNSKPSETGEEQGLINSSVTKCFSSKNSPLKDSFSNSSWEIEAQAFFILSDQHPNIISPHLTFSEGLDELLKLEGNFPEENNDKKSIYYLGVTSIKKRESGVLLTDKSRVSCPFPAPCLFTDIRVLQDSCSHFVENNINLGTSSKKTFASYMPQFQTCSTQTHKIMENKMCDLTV
Description: (§1) LEPR is a cell surface single-pass transmembrane receptor. Activation of LEPR leads to phosphorylation of intracellular STAT3 (pSTAT3) and subsequent target gene transcription. To measure LEPR activation by anti-LEPR antibodies in the present disclosure, five independent STAT-luciferase reporter cell lines were established by introducing DNA plasmids encoding full-length LEPR of different species and STAT3-luciferase reporter gene into HEK293 cells (Table 4). […]
(§2) Before plating the cells for luciferase assays, the poly-D-Lysine coated 96-well plates (Corning Inc, #354651) were rinsed once with phosphate buffered solution (PBS). […] Cell lysing and One-Glo luciferase substrate solution (Promega, #E6120) were then added to each well, and relative luciferase units (RLUs) were measured on a ClarioStar plate reader. For each reporter cell line, positive control LEPR activation was calculated as the average RLUs stimulated by 20 nM recombinant human leptin protein (SEQ ID NO:27) minus the average RLUs of unstimulated cells and was set as maximum LEPR activation (100%). […]

cyno-LEPR = experiment: STAT3-luciferase reporter assay in HEK293-STAT3Luc-cmLepR2 cells; format: cell-based, Macaca fascicularis
Description: as §1, §2

canine-LEPR = experiment: STAT3-luciferase reporter assay in HEK293-STAT3Luc-dLepR7 cells; format: cell-based, Canis lupus
Description: as §1, §2

[1] = STAT3-luciferase, 20 hours, read-out: EC50 (nM) ± SEM
[2] = top of fitted curve vs response to 20 nM recombinant human leptin

For “human leptin: recombinant human leptin protein (SEQ ID NO:27), positive control”, the EC50 (human LEPR; [1]) was 0.0491 ± 0.0044 nM, the “Agonism (%) ± SEM” value (human LEPR; [2]) was 105.83% and the EC50 (cyno-LEPR; [1]) was 0.674 ± 0.11 nM. For the same substance, the “Agonism (%) ± SEM” value (cyno-LEPR; [2]) was 106.34%, the EC50 (canine-LEPR; [1]) was 0.582 ± 0.172 nM and the “Agonism (%) ± SEM” value (canine-LEPR; [2]) was 107.5%.
